# Laboratory results taken from paper PMC11521691, “Elucidating the antimicrobial and anticarcinogenic potential of methanolic and water extracts of edible Tragopogon coelesyriacus Boiss” (Food Science & Nutrition, 2024).
# How the values were obtained:
# [1] = system: ARPE‐19 (retinal epithelial) cells; test: MTT cytotoxicity assay; type: cell-based, human; settings: ARPE19 normal cells
# Description: (§1) This study included three epithelial cancerous (AR42J, pancreatic cancer; HeLa, cervical cancer, and MDA‐MB‐231 breast cancer) and two noncancerous epithelial human cells (ARPE‐19, retina; and MCF10A, breast). AR42J (ECACC, Cat No. 93100618) and MDA‐MB‐231 (ATCC, Cat No. HTB‐26) cells were cultured in RPMI media. HeLa cells (ATCC, Cat No. CCl‐2) were cultured in EMEM media. ARPE‐19 (ATCC, Cat No. CRL‐2302) and MCF10A (ATCC, Cat No. CRL‐10317) cells were cultured in DMEM. Each medium consisted of penicillin–streptomycin (1%) and fetal bovine serum (10%). Cells were cultured in a 37°C incubator with 5% CO2 humidification. Cells were cultured in 96‐well plates as 10.000 cells per well. After they reached at 80% confluency, cells were treated with extracts. For this, experiments for each cell included two groups, (1) treated with T. coelesyriacus extracts obtained by methanol for 24 h, 48 h, and 72 h at 3.125, 6.25, 12.5, 25, […], 100, and 200 μg/mL, and (2) treated with T. coelesyriacus extracts obtained by water for 24 h, 48 h, and 72 h at 3.125, 6.25, 12.5, 25, […], 100, and 200 μg/mL. Control wells for each cell were untreated (0 μg/mL). Positive control experiments were performed with cisplatin at the same concentrations with extracts (3.125–100 μg/mL) for 24 h, 48 h, and 72 h. For each dose at each concentration, at least three wells were used as intra‐experimental repeats. The whole experiments for each cell were repeated as two to three independent replications.
# (§2) After treatment with different extracts (at 3.125, 6.25, 12.5, 25, 50, 100, and 200 μg/mL for 24 h, 48 h, and 72 h), media with extracts were removed, and the MTT protocol was applied as before (Cakmak et al., [2021]). MTT was also applied after cisplatin treatment for 24 h, 48 h, and 72 h. The concentrations of cisplatin used were 3.125, 6.25, 12.5, 25, 50, and 100 μg/mL. In this method, 200 μL of media, including 10 μL MTT (3‐(4,5‐dimethylthiazol‐2‐yl)‐2,5‐diphenyltetrazolium bromide), was added to each well and incubated at 37°C for 2.5 h. After incubation, media with MTT were removed, and 150 μL of DMSO was added to each well for dissolving formazan crystals. Subsequently, plates were incubated in the dark on a shaker for 1 h. Absorbances at 570 nm were read. Cell viabilities (as percentages) were calculated according to the viability of untreated cells considered as 100%. If applicable, IC50 values were calculated as before (Uzuner et al., [2021]).
# [2] = system: HeLa (cervical cancer) cells; test: MTT cytotoxicity assay; type: cell-based, human
# Description: as §1, §2
# [3] = system: MCF10A (breast epithelial) cells; test: MTT cytotoxicity assay; type: cell-based, human; settings: MCF10A normal cells
# Description: as §1, §2
# [4] = system: MDA‐MB‐231 (breast cancer) cells; test: MTT cytotoxicity assay; type: cell-based, human
# Description: as §1, §2
# [5] = system: AR42J (pancreatic cancer) cells; test: MTT cytotoxicity assay; type: cell-based, human
# Description: as §1, §2
# HeLa cells = system: HeLa cells; set-up: method as in Liu et al., 2008; settings: 25 μg/mL for 72 h, ref Liu et al., 2008; cited from earlier work
smiles,measurement,setting,value
N.N.[Cl][Pt][Cl] [cisplatin],Ave IC50 values,[1]; 24 h,63.42 µg/mL
same,Ave IC50 values,[1]; 48 h,54.14 µg/mL
same,Ave IC50 values,[1]; 72 h,16.01 µg/mL
same,Ave IC50 values,[2]; 24 h,8.16 µg/mL
same,Ave IC50 values,[2]; 48 h,13.92 µg/mL
same,IC50 value,[2]; 72 h incubation,4.56 µg/mL
same,Ave IC50 values,[3]; 24 h,33.56 µg/mL
same,Ave IC50 values,[3]; 48 h,26.03 µg/mL
same,Ave IC50 values,[3]; 72 h,8.32 µg/mL
same,Ave IC50 values,"[4]; MDA‐MB‐231, 24 h",41.28 µg/mL
same,Ave IC50 values,"[4]; MDA‐MB‐231, 48 h",27.87 µg/mL
same,IC50 value,"[4]; MDA‐MB‐231, 72 h incubation",10.92 µg/mL
same,IC50 value,[5]; 24 h incubation,18.94 µg/mL
same,IC50 value,[5]; 48 h incubation,14.84 µg/mL
same,IC50 value,[5]; 72 h incubation,6.18 µg/mL
same,cell death,HeLa cells,~90%
